Results reported in patent publication US10561703B2, “Method of modulating sex hormone levels using a sex hormone secretion modulator” (GEMVAX & KAEL CO., LTD., priority 2013, dated 2020).

Tested on: Testosterone
Assay: Testosterone level in blood (serum CLIA) after repeated sc PEP-1
Type: in vivo, SD rats
Experimental: PEP-1 (peptide of SEQ ID NO: 1), lyophilized white powder, obtained according to the method mentioned in example 1 was dissolved in 0.9% of saline, considering the correction factor of PEP-1 (purity: 94.13%, content: 92.36%, correction factor: 1.15). 50 mg/mL stock solution was further diluted into 20 mg/mL, 2 mg/mL, and 1 mg/mL with 0.9% saline, and stored at 4° C. for a week until the use.
The purpose of this example is to confirm the change of sexual hormones in blood from SD rats with 7 days repeated daily administration of SEQ ID NO: 1 peptide, PEP-1. This experiment followed the Ethics Regulation of Animal Test by KAMSI Inc. (Korea Animal Medical Science Institute). In addition, this experiment, Non-GLP experiment, referred to the MFDS (Ministry of Food and Drug Safety) notification; Agent 2013-40 (5th April 2013), Principles of Good Laboratory Practice (1997).
SPF Rats (Crlj:CD(SD)) were purchased from ORIENTBio Inc. (Mokdong-ri, Buk-myeon, Gapyeong-gun, Gyeonggi-do, Republic of Korea). 75 male (6.5 weeks old and 190˜210 g) and 75 female (6.5 weeks old and 160˜180 g) rats were monitored for 4 days, and 64 of male and female rats (each) were selected for the experiment. Raising condition is as follows; 23±3° C. of temperature, […] of relative humidity, 10˜20 times/hr of number of air changes, 12 hours (8 a.m.˜8 p.m.) of lighting with 150˜300 Lux of intensity.
64 male and female […] (mentioned above) were divided into 8 groups. Administration regimen, for example, drugs, routes, dosages, and volumes were as follows:
The detailed administration regimen is as follows; once a day, twice a day and twice a week in each experimental group. Injection initiated at 10 a.m. every day, and each rat was injected at one minute intervals. Rats in Group 9, 10, 13 and 14 were injected twice a week. Administration of high dose test agent preceded that of low dose. The volume of injection was calculated using recently measured weight of rats, and it was 5 mL/kg. Subcutaneous injection was performed as follows; assistant tilted the back of rat upward, and experimenter sterilized the back of rat with 70% alcohol, followed by subcutaneous injection of test agent with 26 G syringe.
1.4 mL of blood sample (0.7 mL of serum) was collected after measurement of weight (Day 0). Next day (1 Day), 1.4 mL of blood sample (0.7 mL of serum) was collected twice after injection of test agent (4 hrs and 8 hrs after administration of test agent). For next 6 days (Day 2˜Day 7), 1.4 mL of blood was extracted once everyday (4 hours after injection of test agent). Dose and volume of test agent of each group followed the Table 3, and injection time zone was same every day. Blood was extracted from the jugular vein, and left at room temperature for 30 minutes. Serum was separated using centrifugation (10,000 rpm for 5 minutes), and stored at −70±5° C. in Deep freezer until the use. Blood extraction from each subject was done in the same time zone every day.
A CLIA (Chemi-Luminescence Immune Assay) Kit was used to analyze Testosterone, Estradiol E2, FSH (Follicle stimulating hormone), and LH (Luteinizing hormone). Analysis was completed within 48 hrs after blood extraction (Laboratory Medicine Department, Chung-Ang University Hospital), and detailed method is as follows; One-way ANOVA was used to verify the comparison between the vehicle and PEP-1, and between different doses of PEP-1. For further analysis, Duncan test was used as parametric test and Dunnett's test as non-parametric test. p<0.05 represents the statistical significance, and all statistical analysis was carried out with SPSS 10.1.
Testosterone was analyzed using the samples prepared from example 2. 15 μL of serum was used for analysis. Fundamentals of analysis is competitive immunoassay based on direct chemi-luminescent. As mentioned in example 2, CLIA (Chemi-luminescence immune assay) Kit was used for Testosterone analysis, following the manufacture's protocol. […]

EARPALLTSRLRFIPK (listed as Homo sapiens) [PEP-1, hormone secretion modulator / GnRH analog]
Testosterone level in blood (G11 Female 100 mg/kg sc 1/day x7, 6 days): 1.01 ng/dL
Testosterone level in blood (G11 Female 100 mg/kg sc 1/day x7, 7 days): 1.25 ng/dL
Testosterone level in blood (G11 Female 100 mg/kg sc 1/day x7, pre): 1.79 ng/dL
Testosterone level in blood (G12 Male 100 mg/kg sc 1/day x7, 4 hr): 0.08 ng/dL
Testosterone level in blood (G12 Male 100 mg/kg sc 1/day x7, 8 hr): 0.01 ng/dL
Testosterone level in blood (G12 Male 100 mg/kg sc 1/day x7, 2 days): 0.01 ng/dL
Testosterone level in blood (G12 Male 100 mg/kg sc 1/day x7, 3 days): 0.05 ng/dL
Testosterone level in blood (G12 Male 100 mg/kg sc 1/day x7, 4 days): 0.17 ng/dL
Testosterone level in blood (G12 Male 100 mg/kg sc 1/day x7, 5 days): 0.11 ng/dL
Testosterone level in blood (G12 Male 100 mg/kg sc 1/day x7, 6 days): 0.12 ng/dL
Testosterone level in blood (G12 Male 100 mg/kg sc 1/day x7, 7 days): 0.12 ng/dL
Testosterone level in blood (G12 Male 100 mg/kg sc 1/day x7, pre): 0.18 ng/dL
Testosterone level in blood (G13 Female 100 mg/kg sc 2/week x2 (days 1,7), 4 hr): 7.48 ng/dL
Testosterone level in blood (G13 Female 100 mg/kg sc 2/week x2 (days 1,7), 8 hr): 6.34 ng/dL
Testosterone level in blood (G13 Female 100 mg/kg sc 2/week x2 (days 1,7), 2 days): 0.97 ng/dL
Testosterone level in blood (G13 Female 100 mg/kg sc 2/week x2 (days 1,7), 3 days): 1.65 ng/dL
Testosterone level in blood (G13 Female 100 mg/kg sc 2/week x2 (days 1,7), 4 days): 1.25 ng/dL
Testosterone level in blood (G13 Female 100 mg/kg sc 2/week x2 (days 1,7), 5 days): 1.3 ng/dL
Testosterone level in blood (G13 Female 100 mg/kg sc 2/week x2 (days 1,7), 6 days): 2.54 ng/dL
Testosterone level in blood (G13 Female 100 mg/kg sc 2/week x2 (days 1,7), 7 days): 12.35 ng/dL
Testosterone level in blood (G13 Female 100 mg/kg sc 2/week x2 (days 1,7), pre): 1.71 ng/dL
Testosterone level in blood (G14 Male 100 mg/kg sc 2/week x2 (days 1,7), 4 hr): 0.07 ng/dL
Testosterone level in blood (G14 Male 100 mg/kg sc 2/week x2 (days 1,7), 8 hr): 0.01 ng/dL
Testosterone level in blood (G14 Male 100 mg/kg sc 2/week x2 (days 1,7), 2 days): 0.01 ng/dL
Testosterone level in blood (G14 Male 100 mg/kg sc 2/week x2 (days 1,7), 3 days): 0.13 ng/dL
Testosterone level in blood (G14 Male 100 mg/kg sc 2/week x2 (days 1,7), 4 days): 0.17 ng/dL
Testosterone level in blood (G14 Male 100 mg/kg sc 2/week x2 (days 1,7), 5 days): 0.13 ng/dL
Testosterone level in blood (G14 Male 100 mg/kg sc 2/week x2 (days 1,7), 6 days): 0.14 ng/dL
Testosterone level in blood (G14 Male 100 mg/kg sc 2/week x2 (days 1,7), 7 days): 0.15 ng/dL
Testosterone level in blood (G14 Male 100 mg/kg sc 2/week x2 (days 1,7), pre): 0.13 ng/dL
Testosterone level in blood (G15 Female 250 mg/kg sc 1/day x7, 4 hr): 6.27 ng/dL
Testosterone level in blood (G15 Female 250 mg/kg sc 1/day x7, 8 hr): 8.2 ng/dL
Testosterone level in blood (G15 Female 250 mg/kg sc 1/day x7, 2 days): 3.77 ng/dL
Testosterone level in blood (G15 Female 250 mg/kg sc 1/day x7, 3 days): 2.09 ng/dL
Testosterone level in blood (G15 Female 250 mg/kg sc 1/day x7, 4 days): 0.8 ng/dL
Testosterone level in blood (G15 Female 250 mg/kg sc 1/day x7, 5 days): 0.75 ng/dL
Testosterone level in blood (G15 Female 250 mg/kg sc 1/day x7, 6 days): 1.27 ng/dL
Testosterone level in blood (G15 Female 250 mg/kg sc 1/day x7, 7 days): 1.52 ng/dL
Testosterone level in blood (G15 Female 250 mg/kg sc 1/day x7, pre): 1.65 ng/dL
Testosterone level in blood (G16 Male 250 mg/kg sc 1/day x7, 4 hr): 0.11 ng/dL
Testosterone level in blood (G16 Male 250 mg/kg sc 1/day x7, 8 hr): 0.03 ng/dL
Testosterone level in blood (G16 Male 250 mg/kg sc 1/day x7, 2 days): 0 ng/dL
Testosterone level in blood (G16 Male 250 mg/kg sc 1/day x7, 3 days): 0.08 ng/dL
Testosterone level in blood (G16 Male 250 mg/kg sc 1/day x7, 4 days): 0.18 ng/dL
Testosterone level in blood (G16 Male 250 mg/kg sc 1/day x7, 5 days): 0.09 ng/dL
Testosterone level in blood (G16 Male 250 mg/kg sc 1/day x7, 6 days): 0.14 ng/dL
Testosterone level in blood (G16 Male 250 mg/kg sc 1/day x7, 7 days): 0.12 ng/dL
Testosterone level in blood (G16 Male 250 mg/kg sc 1/day x7, pre): 0.18 ng/dL
Testosterone level (female group, after injection of PEP-1): 0.05 ng/dL
Effect on the Testosterone level (female rat): does not have significant effect
Testosterone level (male groups, Day 1, all groups injected with PEP-1): 6 to 10 ng/dL
Testosterone level, PEP-1 versus vehicle (male groups, after Day 3): no significant difference between PEP-1 and vehicle
